Measured values from a melting point compilation (Tetko et al.; mined from patent text by program, amines drawn as free bases though some values may be those of a salt).

Row | melting point [°C] | SMILES
1 | 182 to 185 | CS(=O)(=O)c1ccc(-c2cnn(-c3ccc(F)c(F)c3)c(=O)c2-c2cccc(F)c2)cc1
2 | 87 to 89 | CNC(=O)N1CCC(Oc2c(F)c(F)c(F)c(F)c2F)(c2ccccc2)CC1
3 | 105 to 106 | CCOC(=O)C1=Cc2cc(I)ccc2OC1C(F)(F)F (centres undefined)
4 | 130 to 132 | Nc1cnc(Oc2ccc(Cl)c3c2CCCC3)c(Cl)c1
5 | 108 | CCCC(=NOCC)C1=C(O)CC(c2c(C)c(C)c(C)c3c2OCC3)CC1=O (centres undefined)
6 | > 220 | COc1ccc(Nc2nc(-c3ccncc3)nc3ccccc23)cc1Cl
7 | 183 to 185 | CCc1ccc2oc3cc(C#N)cnc3c(=O)c2c1
8 | 43 to 43.5 | CC(C)(C)CCNC(=O)N(CCCl)N=O
9 | 130 to 132 | CC(C(=O)O)c1ccc2c(c1)CC(=O)c1ccccc1S2 (centres undefined)
10 | 89 | C=CC(CC(O)C(CC1CCCCC1)NC(=O)C(Cc1c[nH]cn1)NC(=O)C(CN)(Cc1ccccc1)Cc1ccccc1)C(C)C (centres undefined)
11 | 120 to 123 | COc1ccc2nc(NC(=O)C(CC3CCCC3)c3ccc(S(=O)(=O)N4CCOCC4)cc3)sc2n1 (centres undefined)
12 | 133 to 134 | COc1ccccc1Oc1c(Cl)nc(N2CCOCC2)nc1OCCOCc1ccccc1
13 | 165 to 166 | COc1cccc(C#Cc2nc(C)ccc2N)c1
14 | 164 to 167 | CCOC(=O)C(Cl)=Cc1cc(-n2ncc(C(F)(F)F)c(C)c2=O)ccc1Cl
15 | 181 to 183 | CCOC(=O)c1[nH]c2cc(-c3ccccc3)ccc2c1N
16 | 154 to 155 | N#Cc1ccc(-c2ccc(C=Cc3ccccc3)o2)nc1
17 | 84.5 to 86.5 | CC(=O)c1ccc(-c2ccccc2F)cc1
18 | 182 to 183 | CCOC(=O)c1cc(=O)c2c(CC)cc(Cl)cc2[nH]1
19 | 168 to 170 | CCCOc1ccc(S(=O)(=O)CCC)cc1C(N)=O
20 | 128 to 131 | Cc1nc(NCCSCc2nc[nH]c2C)[nH]c(=O)c1Cc1cccnc1
21 | 137 | CC#CC(O)(Cn1cncn1)c1ccc(Oc2ccc(Cl)cc2)cc1Cl (centres undefined)
22 | 250 to 255 | Clc1cc2c(cc1Cl)Sc1cc(Cl)c(Cl)cc1S2
23 | 213 to 217 | O=C(Nc1ccc(C(F)(F)F)cc1)NC1CCN(C(=O)c2cccnc2)CC1

Row | melting point [°C] | SMILES
24 | 102 to 103 | COc1c(C)c(C)cc(C)c1C(O)(c1ccc(F)cc1)C(C)C (centres undefined)
25 | 118 | CCOC(=O)c1cnc2c(O)cccc2c1
26 | 78.5 to 79 | Cc1cc(-c2ccc(OC(F)(F)F)cc2)ccc1C1COC(c2c(F)cccc2F)=N1 (centres undefined)
27 | 180 to 182 | O=c1[nH]c(=O)n(CCCCBr)c2cc(Cl)ccc12
28 | 165 to 166 | COc1ccc(-c2cc(C=O)[nH]c2-c2ccc(OC)cc2)cc1
29 | 135 to 137 | N=C(NCc1cccs1)NN=Cc1c(Cl)cccc1Cl
30 | 106 to 107 | Cc1nc(-n2cnn(CCNCc3ccc(F)cc3)c2=O)sc1C(=O)NCc1cccnc1
31 | 218 to 220 | COc1cc(CC(=O)O)ccc1NC(=O)Nc1ccccc1C(F)(F)F
32 | 209 | COc1ncccc1-c1cncc(OC2SCC(O)C(O)C2O)c1 (centres undefined)
33 | 198 to 199 | O=C(O)c1cc(-n2c(-c3ccccc3)cc3c2CCC3)ccc1O
34 | 96 to 98 | CCOC(=O)N1CCN(C2Cc3cc(C)ccc3Sc3ccccc32)CC1 (centres undefined)
35 | 146 to 148 | CNc1nc(-c2cccc(NCc3ccccc3)c2)c2cc(OC)c(OC)cc2n1
36 | 159 to 160 | O=C1NCCC[C@@H]1NS(=O)(=O)c1cccc(F)c1
37 | 119 to 122 | CC(=O)SCCC(=O)N1c2cc(C)ccc2CCC1C(=O)O (centres undefined)
38 | 160 to 161 | CC(C)(C)C1=C(c2cc(O)c3nc(-c4ccccc4)oc3c2)OCC1(C)C
39 | > 200 | CN(C)CCCOc1ccc(C[C@H](NC(=O)[C@@H]2CCCN2S(=O)(=O)c2cc(Cl)sc2Cl)C(=O)O)cc1
40 | 187 to 194 | CCn1cc(C(=O)O)c(=O)c2cc(F)c(N3CCC(N)C3)c(C)c21 (centres undefined)
41 | 129 to 131 | O=c1ccc(-c2c(-c3ccccc3)nn3ccccc23)nn1C1CCCCC1=Cc1nnn[nH]1 (centres undefined)
42 | 264 | CCCCCCCCCNC(C)C(=O)O (centres undefined)
43 | 84.5 to 85.5 | CCOC(=O)c1sc(C)nc1SC(=O)N(C)C
44 | 119 to 120 | CCCCOC(=O)c1c(C)nc2cc(OC)c(OC)cc2c1-c1ccc(OC)c(OC)c1
45 | 212 to 214 | CCOC(=O)c1cnc(SC)nc1Nc1ccc2cn[nH]c2c1
46 | 129 to 130 | Cc1oc(C=Cc2ccc(Cl)cc2)nc1CO

Second part, the compound before the results:

Row | SMILES | melting point [°C]
47 | O=C(CC1=C(n2nc(-c3c(-c4ccccc4)nn4ccccc34)ccc2=O)CCCC1)N1CCCC1 | 178 to 179
48 | COc1ccc(C(CN(C)C)C2(O)CCCCC2)cc1 (centres undefined) | 78.3 to 79.5
49 | O=C1NCCCN1C1(CO)CCNCC1 | 162
50 | CCCN(CCC)C1COc2cccc(C(=O)c3ccccc3F)c2C1 (centres undefined) | 98.3 to 98.4
51 | COc1ccc(CN2CCC(c3cn(Cc4cccs4)c4cc(F)ccc34)CC2)cc1C(=O)O | 245 to 246
52 | Cc1cc(C2=NOC(c3cc(Cl)cc(Cl)c3)(C(F)(F)F)C2)ccc1C(=O)NC1CSSC1 (centres undefined) | 73
53 | COc1ccc(CN2C(=O)[C@H]([C@@H](C)O)[C@H]2[C@@H]2COC(C)(C)O2)c(OC)c1 | 145 to 146
54 | CCCCc1cnc2ccc(C(=O)O)cc2c1O | 260
55 | COc1ccccc1NC(=O)NC1N=C(c2ccccc2)c2ccccc2N(C)C1=O (centres undefined) | 258 to 260
56 | CCN1C(=O)C(C(=O)Nc2ccc(Cl)cc2)c2cc3c(cc21)CCO3 (centres undefined) | 175 to 176
57 | CCOC(=O)C(C)(C)n1c(=O)c2ccccc2n(CCCCBr)c1=O | 113 to 114
58 | CCOC(=O)c1cc(C#N)cc(C(F)(F)F)n1 | 71.5
59 | Oc1ccc(-c2nc3ccccc3o2)cc1 | 253
60 | Cn1cc(C2CCC(=O)C2)c2cc(F)ccc21 (centres undefined) | 104 to 105
61 | Cc1cc(C(N)=O)ccc1N=C1SC[C@H](CC(C)C)N1CC(C)C | 130 to 131
62 | CS(=O)(=O)Nc1cc2c(cc1Oc1ccc(F)cc1F)CCC2 | 85 to 87
63 | CON=C1CN(c2c(F)cc3c(=O)c(C(=O)O)cn(C4CC4)c3c2Cl)CC12CN(C(=O)OC(C)(C)C)C2 | 203 to 204
64 | O=C(c1cccnc1)C1COCOC1 | 91 to 100
65 | CCn1cc(C(=O)O)c(=O)c2cnc(N3CCN(C)CC3)nc21 | 232 to 233
66 | CN(CCn1ncc2ccccc2c1=O)CC(O)c1ccc(NS(C)(=O)=O)cc1 (centres undefined) | 134 to 137

Row | SMILES | melting point [°C]
67 | C[Si](C)(C)C#CC1(O)CCCCC1 | 72 to 73
68 | O=C(O)c1ccc(C=CC(=O)c2ccc(O)cc2)cc1 | 300 to 302
69 | CCN1C(=O)c2ccc(C)cc2Oc2ncccc21 | 88 to 90
70 | CCOC(=O)c1cc(O)cc2cc(-c3ccc(O)cc3)oc12 | 221 to 223
71 | CCCOc1ccc(C#N)cc1O | 99
72 | CC(=O)NC[C@H]1CN(c2ccc(N3CCN(C(=O)CCCC(=O)c4ccc(NC(=O)CN)cc4)CC3)c(F)c2)C(=O)O1 | 178 to 181
73 | CCN(CC)C(=O)C(C)Oc1cc(-c2ccccc2)cc2ccccc12 (centres undefined) | 109
74 | O=C1CCN(c2cc(Cl)ncn2)CC1 | 100 to 103
75 | CCc1[nH]n(C2CCCC2)c2nc(-c3ccccc3OCCCN3CCOCC3)nc(=O)c1-2 | 220 to 221
76 | COC(=O)n1nc(Oc2c(F)cc(C(F)(F)F)cc2Cl)cc1C | 123 to 125
77 | COc1ccc(C2CCOCC2)cc1NC(=S)c1ncc[nH]1 | 189 to 190
78 | COC(=O)c1cc([N+](=O)[O-])c(C)s1 | 81
79 | CCOC(=O)Cc1cc(O)c(C)cc1O | 134
80 | CC#CCOc1cc(Cl)ncn1 | 43.5
81 | COc1ccc(C2OC2C(N)=O)cc1 (centres undefined) | 142 to 144
82 | OCC1OC(n2c(Cl)nc3cc(Cl)c(Cl)cc32)C(O)C1O (centres undefined) | 175 to 176
83 | O=C1CC(c2ccccc2)Cc2c1ccn2C(=O)c1ccccc1 (centres undefined) | 140 to 142
84 | CCc1cc2c(s1)-n1c(CCNC(=O)c3cc4ccccc4[nH]3)nnc1CN=C2c1ccccc1Cl | 174 to 178
85 | C[C@H](NC(=O)c1c(N)cccc1F)C(=O)O | 194 to 198
86 | CN1C(=O)C(C2=COc3ccccc3O2)=C(c2c[nH]c3ccc(F)cc23)C1=O | 229

Row | SMILES | melting point [°C]
87 | O=[N+]([O-])c1c[nH]nc1-c1ccc(Cl)cc1 | 172 to 174
88 | CCCN(CCC)Cc1nc(-c2ncn3c2[C@@H]2CCCN2C(=O)c2cc(F)ccc2-3)no1 | 222 to 225
89 | CC(=O)Nc1cccc2c1Cc1ccccc1C2=O | 266
90 | CCc1noc(NS(=O)(=O)c2ccccc2)c1Br | 90 to 93
91 | CN(C)C(=O)c1ccc(Nc2nc(OCC3CCCCC3)c3nc[nH]c3n2)cc1 | 184 to 186
92 | NC(=O)ON(Cc1ccccc1)Cc1ccccc1 | 127 to 129
93 | Cc1cc(-c2cc(C(F)(F)F)nn2-c2ccc(S(C)(=O)=O)c(F)c2)ccc1-c1ccco1 | 123 to 125
94 | N#Cc1cccc(S(=O)(=O)N2c3ccccc3C[C@H]2C(=O)NCCc2ccccc2)c1 | 50
95 | CCN(CC)CCN1c2ccccc2N(C)C(=O)c2ccc(C)nc21 | 91 to 93
96 | CNS(=O)(=O)CCc1ccc2[nH]ccc2c1 | 122 to 124
97 | CC(CBr)N1CCN(c2ccccn2)CC1 (centres undefined) | 50 to 51
98 | C=CC(O)C1OC(C)(C)OC1C(O)CO (centres undefined) | 73 to 74
99 | COc1cccc(Cc2cc3cccc(-c4cccc(C(=O)NCCN5CCCC5)c4)c3o2)c1 | 101 to 102
100 | c1cnc(N2CCN(Cc3ccc(CN4CCN(c5ncccn5)CC4)cc3)CC2)nc1 | 193 to 195
101 | CON=C(Cn1ncc(-c2ccc(S(C)(=O)=O)cc2)c(-c2ccc(F)cc2)c1=O)c1ccccc1 | 95 to 99
102 | CCOC(=O)C1=C(NC(=O)Nc2cc(OC(C)C)c(Cl)cc2F)CCC1 | 166 to 169
103 | N#Cc1ccc(C=Cc2ncn(CC(O)(Cn3cncn3)c3ccc(F)cc3F)n2)cc1 (centres undefined) | 189 to 191
104 | Clc1ccccc1C1=NCc2nnc(Cc3ccccc3)n2-c2sc3c(c21)CCNC3 | 192
